# Measurements as given in publication PMC3466195, “Potassium Acts as a GTPase-Activating Element on Each Nucleotide-Binding Domain of the Essential Bacillus subtilis EngA” (PLoS ONE, 2012).
# Where two headings read alike, the source gives them in different places.
# Tests used:
# [1] = molecular target: T1, B. subtilis EngA (Bacillus subtilis, UniProt P50743); assay type: biochemical; details: for Km / Vmax / kcat: GTP hydrolysis by EngA; for kcat: fitted; for GTPase activity corresponding to 100%: wild-type EngA, 300 mM KCl
# T1 construct: full-length EngA (named hereafter as EngA) and its two shortened EngA variants, GD1 and GD2-KH were overexpressed in E. coli; His-tag (from pET15b; purified on Ni-IDA) (N); made in house; host or cells: E. coli C41(DE3)
# Protocol: (§1) GTPase activities were determined using a coupled-enzymatic assay containing pyruvate kinase and lactate dehydrogenase as previously described. The proteins (2 µM or 8 µM of EngA in the presence of KCl or NaCl, respectively, and 4 µM for GD1 and 12.5 µM for GD2-KH) and the coupled assay system containing 50 mM Tris/HCl pH 8, 4 mM phosphoenol pyruvate, 0.4 mM NADH, 1 mM MgCl2, 30 µg pyruvate kinase and 15 µg lactate dehydrogenase, were mixed into a quartz cuvette (final volume of 750 µl) in the presence of GTP (up to 1 mM) and salts, either KCl or NaCl, as indicated in the figure legends. When the GTPase and XTPase activities of the wild-type EngA and the single point mutants were studied (Fig. 7), the assay medium (final volume of 500 µl) contained 3 mM MgCl2 and the pyruvate kinase was increased to 120 µg to ensure an immediate conversion of XDP back into XTP. The reaction was started by adding 3.2 µM or 0.8 µM of wild-type EngA or single point mutants in the absence or presence of 300 mM K^+, respectively. GTP or XTP hydrolysis was monitored by following the change in absorbance at 340 nm upon conversion of NADH to NAD^+, for 10 min at 37°C, using either a Hitachi U3350 or a Safas UVmc^2 spectrophotometer. The slope measured (ΔDO/min) was used to calculate the activity of the protein taking into account the εNADH340nm = 6220 l.mol^−1.cm^−1. Control experiments were systematically performed in the absence of nucleotides (protein alone) or in the absence of proteins (nucleotides alone) and the activities measured in all cases were negligible. Between many different EngA preparations, the specific activities measured at 1 mM GTP varied between 100–130 nmoles/min/mg protein.
# [2] = molecular target: T2, GD1 (Bacillus subtilis, UniProt P50743); assay: GTP hydrolysis coupled-enzymatic assay; assay type: biochemical; details: GD1, absence of K+
# T2 construct: two shortened EngA variants that only contain GD1 or GD2-KH; His-tag (from pET15b; purified on Ni-IDA) (N); made in house; host or cells: E. coli C41(DE3)
# T2 sequence (P50743 4-167 limits assumed): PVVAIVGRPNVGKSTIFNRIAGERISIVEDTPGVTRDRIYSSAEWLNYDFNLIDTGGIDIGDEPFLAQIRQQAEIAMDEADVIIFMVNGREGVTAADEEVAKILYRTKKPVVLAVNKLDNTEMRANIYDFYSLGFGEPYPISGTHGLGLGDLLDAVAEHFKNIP
# Protocol: as §1
# [3] = molecular target: T3, GD2-KH (Bacillus subtilis, UniProt P50743); assay: GTP hydrolysis coupled-enzymatic assay; assay type: biochemical; details: GD2-KH, absence of K+
# T3 construct: two shortened EngA variants that only contain GD1 or GD2-KH; His-tag (from pET15b; purified on Ni-IDA) (N); made in house; host or cells: E. coli C41(DE3)
# T3 sequence (P50743 173-436): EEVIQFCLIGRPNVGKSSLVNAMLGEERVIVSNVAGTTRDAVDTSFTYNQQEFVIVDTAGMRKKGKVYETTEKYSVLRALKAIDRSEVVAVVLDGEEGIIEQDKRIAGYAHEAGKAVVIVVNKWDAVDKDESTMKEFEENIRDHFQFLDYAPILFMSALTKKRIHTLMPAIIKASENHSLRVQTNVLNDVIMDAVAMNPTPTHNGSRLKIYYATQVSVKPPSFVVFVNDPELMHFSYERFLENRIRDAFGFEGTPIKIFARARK
# Protocol: as §1
# [4] = system: T. maritima EngA; details: cited from earlier work
# [5] = system: E. coli EngA; design: method as in PMID 16963571; details: cited from earlier work
# [6] = system: M. smegmatis EngA; design: method as in PMID 22506030; details: cited from earlier work
# [7] = molecular target: S. typhimurium EngA; design: method as in PMID 17905831; details: cited from earlier work
# [8] = molecular target: T4, B. subtilis EngA (Bacillus subtilis, UniProt P50743); assay: Fluorescence resonance energy transfer between tryptophan residues and MANT moiety; assay type: binding; details: FRET Trp to MANT
# T4 construct: full-length EngA (named hereafter as EngA) and its two shortened EngA variants, GD1 and GD2-KH were overexpressed in E. coli; His-tag (from pET15b; purified on Ni-IDA) (N); made in house; host or cells: E. coli C41(DE3)
# T4 sequence (P50743 1-436): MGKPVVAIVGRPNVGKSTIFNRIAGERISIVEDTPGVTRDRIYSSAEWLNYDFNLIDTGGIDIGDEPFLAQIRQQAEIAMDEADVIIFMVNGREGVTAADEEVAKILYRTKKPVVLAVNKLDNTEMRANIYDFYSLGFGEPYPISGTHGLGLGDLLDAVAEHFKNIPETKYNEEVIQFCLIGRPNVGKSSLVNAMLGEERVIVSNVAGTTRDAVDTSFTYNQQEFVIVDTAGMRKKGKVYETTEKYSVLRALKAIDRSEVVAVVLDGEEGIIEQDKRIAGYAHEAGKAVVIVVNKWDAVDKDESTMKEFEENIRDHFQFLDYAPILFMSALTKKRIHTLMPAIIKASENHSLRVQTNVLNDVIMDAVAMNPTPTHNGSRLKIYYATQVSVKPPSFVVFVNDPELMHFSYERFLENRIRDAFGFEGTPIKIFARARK
# Protocol: Fluorescence measurements were performed essentially as described previously for the unmodified nucleotides or the N-methylanthraniloyl-GDP (MANT-GDP) analogue using a PTI QuantaMaster 4 spectrofluorimeter, [62]. Dissociation constants (K D) for nucleotides were calculated by monitoring intrinsic tryptophan fluorescence variation using 295 nm excitation wavelength, with a slit width of 2 nm, and scanning emission fluorescence between 310 and 400 nm (for the unmodified nucleotide) or 400 and 500 nm (for MANT-GDP), with a slit width of 4 nm. For the intrinsic tryptophan fluorescence, inner filter effect was corrected using N-Acetyltryptophanamide (NATA) as a reference. […] The fluorescence was normalized respective to the integrated value of the fluorescence peak obtained in the absence of unmodified nucleotide (between 310 and 400 nm) or MANT-GDP (between 400 and 500 nm). The data were fitted using the GraFit 5.0.11 software with the following equation: [drawing 1] where F is the relative fluorescence intensity in the presence of nucleotide, F min is the relative fluorescence in the absence of nucleotide, F max is the fluorescence intensity at saturating concentration of nucleotide, L is the nucleotide concentration, E is the protein concentration and K D is the dissociation constant of the protein-nucleotide complex.
# [9] = molecular target: T4, B. subtilis EngA; assay: Nucleotide binding monitored by intrinsic tryptophan fluorescence; details: read-out: KD
# Protocol: (§2) Fluorescence measurements were performed essentially as described previously for the unmodified nucleotides or the N-methylanthraniloyl-GDP (MANT-GDP) analogue using a PTI QuantaMaster 4 spectrofluorimeter, [62]. Dissociation constants (K D) for nucleotides were calculated by monitoring intrinsic tryptophan fluorescence variation using 295 nm excitation wavelength, with a slit width of 2 nm, and scanning emission fluorescence between 310 and 400 nm (for the unmodified nucleotide) or 400 and 500 nm (for MANT-GDP), with a slit width of 4 nm. For the intrinsic tryptophan fluorescence, inner filter effect was corrected using N-Acetyltryptophanamide (NATA) as a reference. 1 µM NATA or 0.5 µM of YphC were mixed with 50 mM Tris/HCl pH 8, 2 mM MgCl2, NaCl or KCl and increasing amount of nucleotide (GDP, GMPPNP or MANT-GDP), as indicated in the figure legends. The fluorescence was normalized respective to the integrated value of the fluorescence peak obtained in the absence of unmodified nucleotide (between 310 and 400 nm) or MANT-GDP (between 400 and 500 nm). The data were fitted using the GraFit 5.0.11 software with the following equation: [drawing 1] where F is the relative fluorescence intensity in the presence of nucleotide, F min is the relative fluorescence in the absence of nucleotide, F max is the fluorescence intensity at saturating concentration of nucleotide, L is the nucleotide concentration, E is the protein concentration and K D is the dissociation constant of the protein-nucleotide complex.
# [10] = molecular target: T5, GD1 (shortened B. subtilis EngA variant) (Bacillus subtilis, UniProt P50743); assay: as above
# T5 construct: two shortened EngA variants that only contain GD1 or GD2-KH; His-tag (from pET15b; purified on Ni-IDA) (N); made in house; host or cells: E. coli C41(DE3)
# Protocol: as §2
# [11] = molecular target: T6, GD2-KH (shortened B. subtilis EngA variant) (Bacillus subtilis, UniProt P50743); assay: as above
# T6 construct: two shortened EngA variants that only contain GD1 or GD2-KH; His-tag (from pET15b; purified on Ni-IDA) (N); made in house; host or cells: E. coli C41(DE3)
# Protocol: as §2
# [12] = molecular target: T7, EngA (Bacillus subtilis, UniProt P50743); assay: Fluorescence-based Thermal Shift Assay (TSA); assay type: binding; details: EngA with 1 mM nucleotide; no effector Tm 41.5
# T7 construct: full-length EngA (named hereafter as EngA) and its two shortened EngA variants, GD1 and GD2-KH were overexpressed in E. coli; His-tag (from pET15b; purified on Ni-IDA) (N); made in house; host or cells: E. coli C41(DE3)
# T7 sequence (P50743 1-436): T4 sequence (P50743 1-436)
# Protocol: (§3) Assays were performed into a 96-well thin-wall PCR plate (BioRad) using an IQ5 96-well format real-time PCR instrument (Bio-Rad) over a temperature range from 20°C to 90°C with temperature increments of 0.2°C [64]. Assay samples (23 µl) contained 50 mM Tris/HCl pH 8, 0.5 mg/ml of EngA or 1.5 mg/ml of GD1 or GD2-KH, and concentration of salt and/or nucleotides as indicated, and 2 µl of SYPRO Orange solution (Molecular Probes, Eugene, OR, 500x in DMSO diluted 5 times in water) was added. The plates were heated and changes in fluorescence for the environmentally sensitive dye SYPRO Orange were monitored through a charge-coupled device (CCD) camera. The melting temperature (Tm) values for each protein were determined graphically from the fluorescence first derivative of the melting curves. The wavelengths for excitation and emission were 470 nm and 570 nm, respectively.
# [13] = molecular target: T2, GD1; assay: Fluorescence-based Thermal Shift Assay (TSA); assay type: binding; details: GD1 with 1 mM nucleotide; no effector Tm 51
# Protocol: as §3
# [14] = molecular target: T3, GD2-KH; assay: Fluorescence-based Thermal Shift Assay (TSA); assay type: binding; details: GD2-KH with 1 mM nucleotide; no effector Tm 42.8
# Protocol: as §3
smiles,measurement,setting,value
Nc1nc2c(ncn2[C@@H]2O[C@H](COP(=O)(O)OP(=O)(O)OP(=O)(O)O)[C@@H](O)[C@H]2O)c(=O)[nH]1 [GTP],specific activity,"[1]; 1 mM GTP, different EngA preparations",100–130 nmoles/min/mg protein
same,GTPase activity (kcat),"[1]; EngA, absence of K+",0.005 to 0.0083 s⁻¹
same,Km,[1]; 300 mM K+,153 µM
same,Vmax,[1]; 300 mM K+,144.5±3.4 nmol/min/mg protein
same,kcat,[1]; 300 mM K+,~0.123 s⁻¹
same,Vmax,[1]; absence of K+,6.1±0.2 nmol/min/mg protein
same,Km,[1]; no K+,111 µM
same,kcat,[1]; no K+,~0.005 s⁻¹
same,GTPase activity corresponding to 100%,[1]; 200 µM nucleotide,77 µmol GTP hydrolyzed/min/mg proteins
same,GTPase activity corresponding to 100%,[1]; 1 mM GTP,100 µmol GTP hydrolyzed/min/mg proteins
same,GTPase activity,[2],~0.6 min⁻¹
same,GTPase activity,[3],0.004 min⁻¹
same,kcat,[4]; 400 mM K+,0.0145 s⁻¹
same,Km,"[4]; GTP, T. maritima EngA",110 µM
same,kcat,[5]; 400 mM K+,0.0193 s⁻¹
same,Km,"[5]; GTP, E. coli EngA",143 µM
same,Km,"[6]; GTP, M. smegmatis EngA",39 µM
same,kcat,[6]; absence of K+,8.3e-05 s⁻¹
same,Kd,[7]; higher-affinity site (proposed GD1),~12 µM
same,Kd,[7]; lower-affinity site (proposed GD2),> 100 µM
"CNc1ccccc1C(=O)O[C@H]1[C@@H](O)[C@H](n2cnc3c(=O)[nH]c(N)nc32)O[C@@H]1COP(=O)(O)OP(=O)(O)O [mant-GDP, N-methylanthraniloyl-GDP]",Kd,[8]; 300 mM KCl,2.9 ± 0.2 µM
same,Kd,[8]; no salt,3.1 ± 0.2 µM
Nc1nc2c(ncn2[C@@H]2O[C@H](COP(=O)(O)OP(=O)(O)NP(=O)(O)O)[C@@H](O)[C@H]2O)c(=O)[nH]1 [GMPPNP],Kd,[9]; 300 mM KCl,18.8 ± 2.8 µM
same,Kd,[9]; 300 mM NaCl,16.5 ± 3.7 µM
same,Kd,"[9]; no salt (absence of K+), 2 mM MgCl2, 25°C",25.7 ± 2.8 µM
same,Kd,"[10]; GD1, 300 mM KCl",35.7 ± 4.9 µM
same,Kd,"[10]; GD1, 300 mM NaCl",17.8 ± 2.4 µM
same,Kd,[11]; 300 mM KCl,6.8 ± 2 µM
same,Kd,[11]; 300 mM NaCl,15.2 ± 1.3 µM
same,Tm,[12],48.8 °C
same,Tm,[13],55.5 °C
same,Tm,[14],48.3 °C
